Results reported in the supplement of paper PMC4862054.

Tests used:
Assay in all cases: normalised viability (% of control), CellTiter-Blue; higher = more viable cells (about 100 = DMSO control)
Conditions in all cases: incubation time: 72 h
Hs578T = system: Hs578T
Summary of the method: (§1)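 Compound dissolved in 5 µl medium was pre-loaded into 384-well plates, and breast cancer cell lines in 20 µl suspension were seeded on top and incubated 72 h. After adding 2.5 µl CellTiter-Blue reagent for 2 h at 37 °C, fluorescence was read at 560/590 nm. Plates were normalised to vehicle (100) and a positive kill control (0), with Z'-factor quality control. Each value is normalised viability at a single listed concentration from the series.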

HCC1143 [1] = system: HCC1143
Summary of the method: as §1

MDA-MB-468 = system: MDA-MB-468
Summary of the method: as §1

CAL-51 [2] = system: CAL-51
Summary of the method: as §1

HCC1937 [3] = system: HCC1937
Summary of the method: as §1

SK-BR-3 [4] = system: SK-BR-3
Summary of the method: as §1

CAL-120 = system: CAL-120
Summary of the method: as §1

MDA-MB-231 [5] = system: MDA-MB-231
Summary of the method: as §1

DU-4475 [6] = system: DU-4475
Summary of the method: as §1

CAL-85-1 [7] = system: CAL-85-1
Summary of the method: as §1

BT-474 = system: BT-474
Summary of the method: as §1

HDQ-P1 [8] = system: HDQ-P1
Summary of the method: as §1

MFM-223 [9] = system: MFM-223
Summary of the method: as §1

MDA-MB-436 = system: MDA-MB-436
Summary of the method: as §1

BT-549 [10] = system: BT-549
Summary of the method: as §1

HCC1599 [11] = system: HCC1599
Summary of the method: as §1

CAL-51 [12] = system: CAL-51; remark: listed apart in the source
Method: (§2)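 DSRT, CellTiter-Blue viability, 72 h incubation. Signal is normalised to DMSO and benzethonium chloride controls. Value is the normalised response at dose 7.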

DU-4475 [13] = system: DU-4475; remark: listed apart in the source
Method: as §2

CAL-85-1 [14] = system: CAL-85-1; remark: listed apart in the source
Method: as §2

CAL-148 [15] = system: CAL-148
Method: as §2

HDQ-P1 [16] = system: HDQ-P1; remark: listed apart in the source
Method: as §2

MDA-MB-453 [17] = system: MDA-MB-453
Method: as §2

HCC1143 [18] = system: HCC1143; remark: listed apart in the source
Summary of the method: as §1

CAL-51 [19] = system: CAL-51; remark: listed apart in the source
Summary of the method: as §1

HCC1937 [20] = system: HCC1937; remark: listed apart in the source
Summary of the method: as §1

SK-BR-3 [21] = system: SK-BR-3; remark: listed apart in the source
Summary of the method: as §1

MDA-MB-231 [22] = system: MDA-MB-231; remark: listed apart in the source
Summary of the method: as §1

DU-4475 [23] = system: DU-4475; remark: listed apart in the source
Summary of the method: as §1

CAL-148 [24] = system: CAL-148; remark: listed apart in the source
Summary of the method: as §1

HDQ-P1 [25] = system: HDQ-P1; remark: listed apart in the source
Summary of the method: as §1

MFM-223 [26] = system: MFM-223; remark: listed apart in the source
Summary of the method: as §1

BT-549 [27] = system: BT-549; remark: listed apart in the source
Summary of the method: as §1

HCC1599 [28] = system: HCC1599; remark: listed apart in the source
Summary of the method: as §1

MDA-MB-453 [29] = system: MDA-MB-453; remark: listed apart in the source
Summary of the method: as §1

Question: Which results are given for `COc1ccc(-c2ccc3c(N4CCOC[C@@H]4C)nc(N4CCOC[C@@H]4C)nc3n2)cc1CO` [AZD8055]?
Answer: normalised viability (Hs578T; 10000 nM): 17.6%; normalised viability (HCC1143 [1]; 10000 nM): 28.4%; normalised viability (MDA-MB-468; 10000 nM): 21.4%; normalised viability (CAL-51 [2]; 100 nM): 27.3%; normalised viability (HCC1937 [3]; 10000 nM): 40.3%; normalised viability (SK-BR-3 [4]; 10000 nM): 10.4%; normalised viability (CAL-120; 10000 nM): 9.25%; normalised viability (MDA-MB-231 [5]; 10000 nM): 22.7%; normalised viability (DU-4475 [6]; 100 nM): 58.6%; normalised viability (CAL-85-1 [7]; 100 nM): 46.3%; normalised viability (BT-474; 10000 nM): 16.9%; normalised viability (HDQ-P1 [8]; 100 nM): 45.6%; normalised viability (MFM-223 [9]; 10000 nM): 14.6%; normalised viability (MDA-MB-436; 10000 nM): 40.1%; normalised viability (BT-549 [10]; 10000 nM): 14.4%; normalised viability (HCC1599 [11]; 10000 nM): 43.4%; normalised viability (CAL-51 [12]; 1000 nM): 10.8%; normalised viability (DU-4475 [13]; 1000 nM): 15.2%; normalised viability (CAL-85-1 [14]; 1000 nM): 23.8%; normalised viability (CAL-148 [15]; 1000 nM): 5.6%; normalised viability (HDQ-P1 [16]; 1000 nM): 27.2%; normalised viability (MDA-MB-453 [17]; 1000 nM): 14.4%; normalised viability (HCC1143 [18]; 10 nM): 100%; normalised viability (CAL-51 [19]; 3 nM): 88.2%; normalised viability (HCC1937 [20]; 10 nM): 77.2%; normalised viability (SK-BR-3 [21]; 10 nM): 72.5%; normalised viability (MDA-MB-231 [22]; 10 nM): 80.7%; normalised viability (DU-4475 [23]; 3 nM): 95.8%; normalised viability (CAL-148 [24]; 3 nM): 89.3%; normalised viability (HDQ-P1 [25]; 3 nM): 83.4%; normalised viability (MFM-223 [26]; 10 nM): 71.9%; normalised viability (BT-549 [27]; 10 nM): 92.5%; normalised viability (HCC1599 [28]; 10 nM): 89.3%; normalised viability (MDA-MB-453 [29]; 3 nM): 94.6%

Question: Which results are given for `C[C@]12CC[C@H](O)CC1=CC[C@@H]1[C@@H]2CC[C@]2(C)C(c3cccnc3)=CC[C@@H]12` [Abiraterone]?
Answer: normalised viability (Hs578T; 5000 nM): 110%; normalised viability (HCC1143 [1]; 5000 nM): 83%; normalised viability (MDA-MB-468; 5000 nM): 111%; normalised viability (CAL-51 [2]; 50 nM): 104%; normalised viability (HCC1937 [3]; 5000 nM): 101%; normalised viability (SK-BR-3 [4]; 5000 nM): 93.5%; normalised viability (CAL-120; 5000 nM): 92.1%; normalised viability (MDA-MB-231 [5]; 5000 nM): 131%; normalised viability (DU-4475 [6]; 50 nM): 90.2%; normalised viability (CAL-85-1 [7]; 50 nM): 96.4%; normalised viability (BT-474; 5000 nM): 98.8%; normalised viability (HDQ-P1 [8]; 50 nM): 110%; normalised viability (MFM-223 [9]; 5000 nM): 87.8%; normalised viability (MDA-MB-436; 5000 nM): 107%; normalised viability (BT-549 [10]; 5000 nM): 119%; normalised viability (HCC1599 [11]; 5000 nM): 120%; normalised viability (CAL-51 [12]; 500 nM): 103%; normalised viability (DU-4475 [13]; 500 nM): 94.2%; normalised viability (CAL-85-1 [14]; 500 nM): 77.2%; normalised viability (CAL-148 [15]; 500 nM): 94.7%; normalised viability (HDQ-P1 [16]; 500 nM): 112%; normalised viability (MDA-MB-453 [17]; 500 nM): 92.3%; normalised viability (HCC1143 [18]; 5 nM): 67.2%; normalised viability (CAL-51 [19]; 1.5 nM): 104%; normalised viability (HCC1937 [20]; 5 nM): 110%; normalised viability (SK-BR-3 [21]; 5 nM): 97.7%; normalised viability (MDA-MB-231 [22]; 5 nM): 86.8%; normalised viability (DU-4475 [23]; 1.5 nM): 84.6%; normalised viability (CAL-148 [24]; 1.5 nM): 91.5%; normalised viability (HDQ-P1 [25]; 1.5 nM): 104%; normalised viability (MFM-223 [26]; 5 nM): 102%; normalised viability (BT-549 [27]; 5 nM): 99.7%; normalised viability (HCC1599 [28]; 5 nM): 104%; normalised viability (MDA-MB-453 [29]; 1.5 nM): 104%
